Laboratory results reported in PMC12491715 (Acta Pharmaceutica Sinica. B, 2025).

What was measured:
[1] = test system: ICR mice icv-injected with Aβ1–42; experiment: Morris water maze, mice model with icv-injection of Aβ1–42; type: in vivo; conditions: 1–5 mg/kg, ip, once a day; comparable to rivastigmine 4 (1 mg/kg, ip)
Experimental: (§1) Mice model with icv-injection of Aβ1–42 The experiments were performed using ICR male mice (8–10 weeks old, weight 18–20 g), which were purchased from Shanghai Bikai Animal Breeding Factory (Shanghai, China). Animals were housed in cages (6 mice per cage) at a constant temperature of 25±2 °C, humidity of 55%±10% and a light/dark (12:12) cycle. The mice had unlimited access to food and water prior to the experiment. Specified conditions for the maintenance of mice were ensured throughout the experiments, including tree bedding (Yizheng Anlimao Biotechnology Co., Ltd., China) and lab feed (Zimao, China). For behavioural tests, mice were selected randomly, each group consisted of 6 mice. The experiments were performed between 9 am and 3 pm.
(§2) According to the literature procedure, recombinant human hexafluoroisopropanol-pretreated Aβ1–42 from Merck Millipore (Darmstadt, Germany) was dissolved in 1% DMSO, diluted with saline to the final concentration of 2 mg/mL, and incubated for 72 h to form oligomers. […]
Behavioural assays The Morris water maze was placed in a lighted room at 25 °C, and it was divided into four equal quadrants. […] The time spent searching for the missing platform was recorded by Xeye Aba image processing system (Beijing Zhongshi Dichuang Technology Development Co., Ltd.) and analysed by GraphPad Prism 5.

[2] = test system: ICR mice icv-injected with Aβ1–42; experiment: Y maze spontaneous alternation, mice model with icv-injection of Aβ1–42; type: in vivo; conditions: ip, once a day
Experimental: as §1, §2
Spontaneous alternation (Y maze) test was used to assess working memory in mice. […] The experimental data recorded the number of times the animal entered the three arms in a row. […] The behavior of mice in the Y maze was recorded by Xeye Aba and processed by GraphPad Prism 5.

In the case of `CCN(CC)C(=O)n1cnc(C2(CC)Cc3ccccc3C2)c1` [Compound 8, N,N-Diethyl-4-(2-ethylindan-2-yl)-1H-imidazole-1-carboxamide], the “performance in Morris water maze” value [1] is reported as “outperformed saline-treated mice (model)” and the “spontaneous alternation in the Y maze task” value [2] is reported as “increased spontaneous alternation”.
